Test results taken from paper PMC12586182 (Frontiers in Oncology, 2025).

Columns and labels:
Test in all cases: Kinase panel profiling at 1 µmol/L (mobility shift assay, Carna)
[1] = biological target: T1, CK1α (Homo sapiens, UniProt P48729); format: biochemical; details: 1 µmol/L of BTK inhibitor
T1 construct: purchased Carna Biosciences

[2] = biological target: T2, CaMK4 (Homo sapiens, UniProt Q16566); format: biochemical; details: 1 µmol/L of BTK inhibitor
T2 construct: purchased Carna Biosciences
T2 sequence (Q16566 1-473): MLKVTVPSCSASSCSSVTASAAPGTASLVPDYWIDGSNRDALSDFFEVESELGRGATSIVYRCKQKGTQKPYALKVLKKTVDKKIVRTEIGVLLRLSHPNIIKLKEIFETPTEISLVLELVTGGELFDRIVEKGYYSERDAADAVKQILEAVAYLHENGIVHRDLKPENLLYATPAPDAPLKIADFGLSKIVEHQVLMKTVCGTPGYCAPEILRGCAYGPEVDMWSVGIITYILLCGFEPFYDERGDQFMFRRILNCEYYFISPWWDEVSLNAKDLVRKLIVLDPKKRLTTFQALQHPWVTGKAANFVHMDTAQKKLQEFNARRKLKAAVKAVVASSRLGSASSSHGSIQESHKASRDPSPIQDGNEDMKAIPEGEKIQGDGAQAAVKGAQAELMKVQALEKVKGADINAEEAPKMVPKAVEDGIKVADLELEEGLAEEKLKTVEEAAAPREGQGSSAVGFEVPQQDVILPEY

[3] = biological target: T3, MUSK (Homo sapiens, UniProt O15146); format: biochemical; details: 1 µmol/L of BTK inhibitor
T3 construct: purchased Carna Biosciences
T3 sequence (O15146 24-869): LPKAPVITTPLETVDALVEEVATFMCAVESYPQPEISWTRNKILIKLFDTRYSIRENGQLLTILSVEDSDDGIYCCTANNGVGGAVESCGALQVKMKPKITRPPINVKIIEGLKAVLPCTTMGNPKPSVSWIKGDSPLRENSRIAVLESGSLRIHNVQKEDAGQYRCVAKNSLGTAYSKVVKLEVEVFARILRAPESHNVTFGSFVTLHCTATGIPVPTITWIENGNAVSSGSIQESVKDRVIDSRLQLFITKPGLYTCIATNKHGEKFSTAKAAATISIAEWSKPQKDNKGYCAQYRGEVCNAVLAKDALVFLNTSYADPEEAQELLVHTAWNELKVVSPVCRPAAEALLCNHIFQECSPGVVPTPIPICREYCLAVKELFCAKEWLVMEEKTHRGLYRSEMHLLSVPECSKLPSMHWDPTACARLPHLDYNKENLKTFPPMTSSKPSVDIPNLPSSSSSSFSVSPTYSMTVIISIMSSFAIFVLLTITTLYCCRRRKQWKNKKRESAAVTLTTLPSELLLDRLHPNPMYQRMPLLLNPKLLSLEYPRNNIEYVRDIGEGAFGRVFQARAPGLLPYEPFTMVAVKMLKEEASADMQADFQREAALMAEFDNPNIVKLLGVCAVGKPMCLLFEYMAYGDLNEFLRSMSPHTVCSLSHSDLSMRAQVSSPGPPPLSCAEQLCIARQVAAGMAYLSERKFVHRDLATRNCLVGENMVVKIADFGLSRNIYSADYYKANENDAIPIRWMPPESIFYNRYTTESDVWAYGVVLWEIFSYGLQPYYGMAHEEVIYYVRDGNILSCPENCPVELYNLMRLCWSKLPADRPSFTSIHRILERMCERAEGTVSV

[4] = biological target: CSK (Homo sapiens, UniProt P41240); details: for Percentage inhibition of kinase enzyme activity: CSK, 1 µmol/L of BTK inhibitor
[5] = biological target: T4, KIT (Homo sapiens, UniProt P10721); format: biochemical; details: 1 µmol/L of BTK inhibitor
T4 construct: purchased Carna Biosciences

[6] = biological target: T5, CGK2 (Homo sapiens, UniProt Q13237); format: biochemical; details: 1 µmol/L of BTK inhibitor
T5 construct: purchased Carna Biosciences
T5 sequence (Q13237 1-762): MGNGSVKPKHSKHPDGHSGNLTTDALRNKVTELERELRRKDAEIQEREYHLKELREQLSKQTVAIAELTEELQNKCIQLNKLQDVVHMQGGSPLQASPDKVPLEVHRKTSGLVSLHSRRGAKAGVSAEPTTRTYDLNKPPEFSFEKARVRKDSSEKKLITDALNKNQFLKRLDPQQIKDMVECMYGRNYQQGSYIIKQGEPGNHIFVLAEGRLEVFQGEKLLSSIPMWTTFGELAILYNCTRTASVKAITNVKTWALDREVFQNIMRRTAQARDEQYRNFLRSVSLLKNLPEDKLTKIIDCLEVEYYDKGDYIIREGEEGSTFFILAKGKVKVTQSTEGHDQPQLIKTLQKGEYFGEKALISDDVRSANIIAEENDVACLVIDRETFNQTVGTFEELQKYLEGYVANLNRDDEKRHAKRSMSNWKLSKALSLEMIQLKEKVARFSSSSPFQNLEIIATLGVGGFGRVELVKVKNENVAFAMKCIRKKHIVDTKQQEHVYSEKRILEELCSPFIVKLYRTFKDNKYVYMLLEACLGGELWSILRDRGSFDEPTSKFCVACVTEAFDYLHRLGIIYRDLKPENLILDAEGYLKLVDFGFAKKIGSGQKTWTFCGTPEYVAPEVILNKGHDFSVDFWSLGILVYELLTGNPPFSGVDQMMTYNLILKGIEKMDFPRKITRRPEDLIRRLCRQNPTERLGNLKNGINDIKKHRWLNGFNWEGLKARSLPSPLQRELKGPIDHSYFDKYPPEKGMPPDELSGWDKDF

T4 sequence (P10721 26-976): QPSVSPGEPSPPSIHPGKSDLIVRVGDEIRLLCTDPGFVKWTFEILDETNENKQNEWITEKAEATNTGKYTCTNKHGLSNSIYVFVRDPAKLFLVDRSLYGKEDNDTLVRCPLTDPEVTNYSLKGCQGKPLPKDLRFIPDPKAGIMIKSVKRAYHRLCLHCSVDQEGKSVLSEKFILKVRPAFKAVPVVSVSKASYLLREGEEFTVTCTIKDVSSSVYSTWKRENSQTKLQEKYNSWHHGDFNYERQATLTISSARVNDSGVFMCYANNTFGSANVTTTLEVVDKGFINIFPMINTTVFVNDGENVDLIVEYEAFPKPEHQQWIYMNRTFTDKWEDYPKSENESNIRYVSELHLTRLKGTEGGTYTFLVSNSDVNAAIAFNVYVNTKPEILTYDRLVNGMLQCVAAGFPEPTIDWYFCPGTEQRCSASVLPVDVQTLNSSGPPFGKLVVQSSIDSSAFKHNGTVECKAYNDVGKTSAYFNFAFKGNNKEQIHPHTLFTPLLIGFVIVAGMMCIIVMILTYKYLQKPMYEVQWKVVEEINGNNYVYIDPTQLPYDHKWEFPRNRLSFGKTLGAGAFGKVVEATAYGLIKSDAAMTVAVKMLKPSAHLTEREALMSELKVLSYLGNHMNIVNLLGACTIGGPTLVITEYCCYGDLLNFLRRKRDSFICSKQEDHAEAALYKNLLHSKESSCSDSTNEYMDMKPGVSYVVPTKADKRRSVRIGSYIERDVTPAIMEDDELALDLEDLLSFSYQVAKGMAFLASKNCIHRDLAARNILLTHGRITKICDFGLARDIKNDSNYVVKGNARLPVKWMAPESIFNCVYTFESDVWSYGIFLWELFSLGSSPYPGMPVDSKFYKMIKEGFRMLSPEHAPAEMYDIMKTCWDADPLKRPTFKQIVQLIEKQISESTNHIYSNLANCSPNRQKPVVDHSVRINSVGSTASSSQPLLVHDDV
Chain of CSK (P41240 whole entry): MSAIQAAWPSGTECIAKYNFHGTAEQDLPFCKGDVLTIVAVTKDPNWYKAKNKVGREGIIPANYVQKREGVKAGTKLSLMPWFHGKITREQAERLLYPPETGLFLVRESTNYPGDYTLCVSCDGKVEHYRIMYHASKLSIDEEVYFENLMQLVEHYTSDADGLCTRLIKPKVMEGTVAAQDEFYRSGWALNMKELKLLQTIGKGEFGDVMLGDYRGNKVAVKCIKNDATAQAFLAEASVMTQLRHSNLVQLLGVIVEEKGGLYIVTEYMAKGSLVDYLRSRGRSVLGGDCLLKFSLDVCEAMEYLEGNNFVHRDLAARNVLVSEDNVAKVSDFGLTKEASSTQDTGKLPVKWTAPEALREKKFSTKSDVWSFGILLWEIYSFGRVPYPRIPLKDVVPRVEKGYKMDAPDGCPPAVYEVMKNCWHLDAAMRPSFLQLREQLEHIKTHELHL
T1 sequence (P48729 whole entry): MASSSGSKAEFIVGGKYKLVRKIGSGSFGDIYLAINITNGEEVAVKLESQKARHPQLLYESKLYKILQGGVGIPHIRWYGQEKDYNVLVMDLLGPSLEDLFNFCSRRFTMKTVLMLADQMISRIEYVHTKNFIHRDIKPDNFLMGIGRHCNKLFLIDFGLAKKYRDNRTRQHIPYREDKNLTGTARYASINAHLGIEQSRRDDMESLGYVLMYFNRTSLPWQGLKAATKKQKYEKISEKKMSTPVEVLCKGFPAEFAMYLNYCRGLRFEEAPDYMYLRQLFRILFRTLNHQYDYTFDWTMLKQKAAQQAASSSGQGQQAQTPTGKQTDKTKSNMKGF

SMILES: CC#CC(=O)N1CCC[C@H]1c1nc(-c2ccc(C(=O)Nc3ccccn3)cc2)c2c(N)nccn12 [acalabrutinib]
- Percentage inhibition of kinase enzyme activity [1]: 10.47%
- Percentage inhibition of kinase enzyme activity [2]: -8.42%
- Percentage inhibition of kinase enzyme activity [3]: -0.58%
- Percentage inhibition of kinase enzyme activity [4]: 6.97%
- Percentage inhibition of kinase enzyme activity [5]: 2.89%
- Percentage inhibition of kinase enzyme activity [6]: 1.55%

SMILES: C=CC(=O)N1CCC[C@@H](n2nc(-c3ccc(Oc4ccccc4)cc3)c3c(N)ncnc32)C1 [ibrutinib]
- Percentage inhibition of kinase enzyme activity [1]: -1.93%
- Percentage inhibition of kinase enzyme activity [2]: 2.93%
- Percentage inhibition of kinase enzyme activity [3]: 1.76%
- Percentage inhibition of kinase enzyme activity [5]: -4.53%
- Percentage inhibition of kinase enzyme activity [6]: -1.77%

SMILES: O=C(c1ccc(Oc2ccccc2)cc1Cl)c1c[nH]c2ncnc(N[C@@H]3CC[C@@H](CO)OC3)c12 [nemtabrutinib]
- Percentage inhibition of kinase enzyme activity [1]: 33.46%
- Percentage inhibition of kinase enzyme activity [2]: 5.83%
- Percentage inhibition of kinase enzyme activity [3]: 100.11%
- Percentage inhibition of kinase enzyme activity [4]: 98.66%
- Percentage inhibition of kinase enzyme activity [5]: 78.81%
- Percentage inhibition of kinase enzyme activity [6]: -1.75%

SMILES: COc1ccc(F)cc1C(=O)NCc1ccc(-c2nn([C@@H](C)C(F)(F)F)c(N)c2C(N)=O)cc1 [pirtobrutinib]
- Percentage inhibition of kinase enzyme activity [1]: 9.63%
- Percentage inhibition of kinase enzyme activity [2]: -9.89%
- Percentage inhibition of kinase enzyme activity [3]: 1.20%
- Percentage inhibition of kinase enzyme activity [4]: 79.14%
- inhibition at 1 µM ([4]; read-out: Inhibition of CSK): > 75%
- Percentage inhibition of kinase enzyme activity [5]: -5.95%
- Percentage inhibition of kinase enzyme activity [6]: -1.75%

SMILES: C=CC(=O)N1CCC([C@@H]2CCNc3c(C(N)=O)c(-c4ccc(Oc5ccccc5)cc4)nn32)CC1 [zanubrutinib]
- Percentage inhibition of kinase enzyme activity [3]: 11.33%
- Percentage inhibition of kinase enzyme activity [5]: -2.78%
